Patent publication US20140275169A1, “Combination Therapies for Enhancing Protein Degradation” (The Regents of the University of Michigan, priority 2013, published 2014)

Tests used:
Usp14 = Usp14 (Homo sapiens, UniProt P54578); assay: Inhibition of Usp14 (statement in overview); type: biochemical
endogenous total tau = assay: Degradation of endogenous total tau in primary cortical rat neurons, SDS-PAGE immunoblot with tau-5 antibody; type: cell-based; settings: 24 hours, individual compounds (lanes 2 and 3) and combination (lane 4)
Description: These independently duplicated experiments were carried out in primary cortical rat neurons for 24 hours. Tau was detected after SDS-PAGE immunoblot analysis, using the tau-5 antibody.
The combined effect of Usp14 inhibitors and Hsp70 inhibitors on tau levels is shown to be synergistic in this experiment in that this effect (lane 4) is greater than the sum of the individual effects of these compounds (lanes 2 and 3). To cite one example, in FIG. 5A the individual effects are approximately 8% and 2% for Usp14 and Hsp70 inhibitors, respectively, while the combined effect is approximately 71%, far greater than the expected additive effect of approximately 10%.
This experiment was carried out in primary cortical rat neurons for 48 hours. Tau was detected after SDS-PAGE immunoblot analysis, using the tau-5 antibody.
This experiment was carried out in primary cortical rat neurons for 24 hours. Tau was detected after SDS-PAGE immunoblot analysis, using the tau-5 antibody.

Usp14, sequence (P54578 whole entry, species assumed): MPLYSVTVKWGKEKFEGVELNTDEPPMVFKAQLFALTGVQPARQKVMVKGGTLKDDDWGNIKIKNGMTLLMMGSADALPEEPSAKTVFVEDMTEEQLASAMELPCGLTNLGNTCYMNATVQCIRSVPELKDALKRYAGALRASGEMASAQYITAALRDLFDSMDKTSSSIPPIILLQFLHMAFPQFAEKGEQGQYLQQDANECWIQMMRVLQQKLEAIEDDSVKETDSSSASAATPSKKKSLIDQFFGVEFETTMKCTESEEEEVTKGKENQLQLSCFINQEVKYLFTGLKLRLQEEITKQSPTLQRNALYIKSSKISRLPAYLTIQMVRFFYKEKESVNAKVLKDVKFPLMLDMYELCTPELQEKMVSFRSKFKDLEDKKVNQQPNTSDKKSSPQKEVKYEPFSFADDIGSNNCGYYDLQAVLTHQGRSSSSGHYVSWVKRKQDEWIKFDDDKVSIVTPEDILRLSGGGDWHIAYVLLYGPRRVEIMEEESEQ

Row | SMILES | Usp14 inhibition, qualitative (Usp14) | effect on tau levels (FIG. 5A) (endogenous total tau)
1 | Cc1cc(C(=O)CN2CCCC2)c(C)n1-c1ccc(F)cc1 [IU1, 1-(1-(4-fluorophenyl)-2,5-dimethyl-1H-pyrrol-3-yl)-2-(pyrrolidin-1-yl)ethanone] | inhibitor of Usp14 | –
2 | Cc1cc(C(=O)CN2CCCCC2)c(C)n1-c1ccc(Cl)cc1 [IU1-47] | more potent variant of IU1 | approximately 8%
